Literature values in PMC8515052, “PepVAE: Variational Autoencoder Framework for Antimicrobial Peptide Generation and Activity Prediction” (Frontiers in Microbiology, 2021).

System: Acinetobacter baumannii
Conditions: murine model of infection; ref Stokes et al., 2020
Text: Many pathogenic bacteria are resistant to the majority of, if not all, antibiotics that are currently being isolated using traditional methods. Because of this, generation of new antimicrobials is critical for survival in the post-antibiotic era ([Brown and Wright, 2016]). At the current rate, annual global death due to antibiotic resistance is projected to exceed 10 million by 2050, costing 100 trillion USD ([O’Neill, 2014]); however, investment has not kept up with the task with very few antibiotics currently in clinical development and far fewer likely to be approved for treatment of patien ...

Nc1nnc(Sc2ncc([N+](=O)[O-])s2)s1 [halicin]
activity against Acinetobacter baumannii: displays activity
